Assays:
[1] = molecular target: T1, HER2 wildtype (WT) protein (Homo sapiens, UniProt P04626); assay: HER2 signaling (pHER2 Tyr1248/total HER2 MSD) in N87 cells; assay type: cell-based; settings: 1.5 hr compound, 1% FBS
T1 construct: BT474 and N87 cell lines which endogenously overexpress the HER2 wildtype (WT) protein; endogenous in cells; host or cells: BT474, N87
Method: (§1) In addition to the engineered cell lines, the following cell lines were used: BT474 (human breast carcinoma), N87 (human gastric carcinoma), NCI-H1781 (human lung adenocarcinoma), and A431 (human epidermoid carcinoma); all cell lines were obtained from the American Type Culture Collection (ATCC, Manassas, VA). NCI-H1781 were grown in complete RPMI 1640 (Life Technologies, Carlsbad, CA) supplemented with 15% fetal bovine serum (FBS, Life Technologies, Carlsbad, CA) and 1% Penicillin-Streptomycin (P/S, Life Technologies, Carlsbad, CA). N87 cells were grown in complete RPMI 1640 supplemented with 10% FBS and 1% P/S. BT474 and A431 cells were grown in DMEM (Life Technologies, Carlsbad, CA) supplemented with 10% FBS and 1% P/S. All cells were maintained and propagated in a humidified 5% CO2 incubator at 37° C.
(§2) HER2 signaling was assessed in BT474 and N87 cell lines which endogenously overexpress the HER2 wildtype (WT) protein, in NCI-H1781 cells which endogenously expresses a HER2 mutant protein containing a VC insertion in the kinase domain (HER2VC or G776delinsVC), and in engineered cell lines transduced to express the Her2 mutant protein containing the YVMA insertion (Hek293-HER2YVMA and BEAS2B-HER2YVMA).
(§3) BT474, N87, and NCI-H1781 were plated in 96-well tissue-culture treated plates (Corning Costar, Sigma-Aldrich) in full media and incubated overnight. Hek293-HER2YVMA and BEAS2B-HER2YVMA cells were plated in 96-well poly-D-lysine treated plates (BD Bioscience, San Jose, CA). For treatment with test compounds, the media was replaced with corresponding low serum media (1% FBS) containing test compound at 1.1, 0.37, 0.12, 0.041, 0.014, 0.005, 0.0014, 0.0005 μM or DMSO control (0.1%). Cells were incubated with compound for 1.5 hr at 37° C. After compound treatment, the media was removed and cells were lysed for 30 min on ice in complete MSD lysis buffer (prepared using MSD base lysis buffer (Meso-Scale Discovery) supplemented with cOmplete, EDTA-free Protease inhibitor cocktail (Roche), Phosphatase Inhibitor Cocktails 2 and 3 (Sigma-Aldrich), and 1 mM PMSF (Sigma-Aldrich)). Lysates were stored at −70° C. until further analysis.
(§4) HER2 signaling was evaluated using phospho (Tyr1248)/total ErbB2 whole cell lysate MSD plates (Meso-Scale Discovery, Gaithersburg, MD). The phospho HER2 signal was normalized to total HER2 for each sample; results are reported as % DMSO control. The normalized data was fitted using a sigmoidal curve analysis program (Graph Pad Prism version 6) with variable Hill slope to determine EC50 values.
(§5) The HER2 signaling results are provided in Table 4, under columns titled “BT474-pHER2 EC50”, “N87-pHER2 EC50”, and “NCI-H1781-pHER2 EC50”. Hek293-HER2YVMA ins fall under the heading “HEKYVMA-pHER2 EC50”, Ba/F3 HER2YVMA fall under the heading “Ba/F3 YVMA-pHER2 EC50” and BEAS2B-HER2YVMA fall under the heading “BEAS2B YVMA-pHER2 EC50”.

HER2VC (G776delinsVC) = molecular target: T2, HER2VC (G776delinsVC) (Homo sapiens, UniProt P04626, G776C/INS775V); assay: HER2 signaling (pHER2) in NCI-H1781 cells; assay type: cell-based; settings: 1.5 hr compound, 1% FBS
T2 construct: NCI-H1781 cells which endogenously expresses a HER2 mutant protein; endogenous in cells; host or cells: NCI-H1781
Method: as §1, §2, §3, §4, §5

Ba/F3 HER2YVMA cells = assay: Cellular proliferation in Ba/F3 HER2YVMA cells; assay type: cell-based, murine; settings: Mus musculus, BaF3, read-out: Ba/F3 YVMA GI50
Method: (§6) Engineered lines expressing HER2YVMA and HER2 WT were prepared in HEK293 (human embryonic kidney cells), Ba/F3 (Interleukin 3 (IL3)-dependent murine pro B cell line), and BEAS2B (primary immortalized human bronchial epithelial cell line). Ba/F3, BEAS2B, and HEK293 cells were obtained from the American Type Culture Collection (ATCC, Manassas, VA). Parental Ba/F3 cells were grown in suspension in complete RPMI 1640 supplemented with 10% FBS and 1% P/S and 10 ng/ml interleukin 3 (IL3, Sigma-Aldrich). Hek293 and BEAS2B cells were grown as monolayers in DMEM supplemented with 10% FBS and 1% P/S. All cells were maintained and propagated in a humidified 5% CO2 incubator at 37° C.
To generate Ba/F3, BEAS2B, and Hek-293 cells engineered with lentivirus to express HER2 WT or HER2YVMA, the cells were transduced with lentiviruses at multiplicity of infection (MOI) of 1 or 10; transduced cells were selected and maintained with G418 ([…]) (Geneticin, Life Technologies, Carlsbad, CA). Ba/F3 engineered cells were subjected to gradual withdrawal of interleukin 3 (IL-3, Sigma-Aldrich). After selection, IL3 independent Ba/F3 HER2YVMA, and BEAS2B HER2YVMA cells were cloned by limiting dilution. Hek293 HER2YVMA cells were used as pool. HER2 and phospho HER2 levels were confirmed by flow cytometery and immunoassay (MSD, Meso-Scale Discovery, Rockville, Maryland).
(§7) Cell proliferation in non-adherent cells was investigated in Ba/F3 parental (IL3-dependent) and in the two IL3 independent cell clones tranduced to express mutant HER2 protein containing the YVMA insertion (Ba/F3 HER2YVMA). Cells were plated in DMEM supplemented with 10% FBS, 1% P/S, and 10 ng/ml IL3 (for parental Ba/F3 only) in 96-well white clear-bottom tissue culture plates (Costar, Sigma-Aldrich) at a starting cell density of 7500 cells. An 8-point standard curve with varying cell densities (starting at 100,000 cells and serially diluting down 2-fold) was prepared for each cell line and read after plating. Compound solutions were prepared in serum free media, and cells were treated as described above for adherent cells. Cell viability was determined by CellTiter Glo (Promega, Madison, WI) after 72 h. The results were converted to cell numbers using a standard curve; growth inhibition (GI50 values) were determined by Graph Pad Prism.
(§8) The results of these experiments show the ability of compounds to inhibit cell growth in HER2 dependent cell lines and a control cell line (Ba/F3 parental) are depicted in Table 4 in the columns titled “G150 (nM)”. Ba/F3 parental results fall under the heading “Ba/F3 parental-G150”, and Ba/F3 HER2YVMA fall under the heading “Ba/F3 YVMA-G150”.

Ba/F3 parental cells = assay: Cellular proliferation in Ba/F3 parental (IL3-dependent) cells; assay type: cell-based, murine; settings: Mus musculus, BaF3
Method: as §6, §7, §8

T2 sequence (P04626 with tags, fused parts or gaps INS775V/G776C): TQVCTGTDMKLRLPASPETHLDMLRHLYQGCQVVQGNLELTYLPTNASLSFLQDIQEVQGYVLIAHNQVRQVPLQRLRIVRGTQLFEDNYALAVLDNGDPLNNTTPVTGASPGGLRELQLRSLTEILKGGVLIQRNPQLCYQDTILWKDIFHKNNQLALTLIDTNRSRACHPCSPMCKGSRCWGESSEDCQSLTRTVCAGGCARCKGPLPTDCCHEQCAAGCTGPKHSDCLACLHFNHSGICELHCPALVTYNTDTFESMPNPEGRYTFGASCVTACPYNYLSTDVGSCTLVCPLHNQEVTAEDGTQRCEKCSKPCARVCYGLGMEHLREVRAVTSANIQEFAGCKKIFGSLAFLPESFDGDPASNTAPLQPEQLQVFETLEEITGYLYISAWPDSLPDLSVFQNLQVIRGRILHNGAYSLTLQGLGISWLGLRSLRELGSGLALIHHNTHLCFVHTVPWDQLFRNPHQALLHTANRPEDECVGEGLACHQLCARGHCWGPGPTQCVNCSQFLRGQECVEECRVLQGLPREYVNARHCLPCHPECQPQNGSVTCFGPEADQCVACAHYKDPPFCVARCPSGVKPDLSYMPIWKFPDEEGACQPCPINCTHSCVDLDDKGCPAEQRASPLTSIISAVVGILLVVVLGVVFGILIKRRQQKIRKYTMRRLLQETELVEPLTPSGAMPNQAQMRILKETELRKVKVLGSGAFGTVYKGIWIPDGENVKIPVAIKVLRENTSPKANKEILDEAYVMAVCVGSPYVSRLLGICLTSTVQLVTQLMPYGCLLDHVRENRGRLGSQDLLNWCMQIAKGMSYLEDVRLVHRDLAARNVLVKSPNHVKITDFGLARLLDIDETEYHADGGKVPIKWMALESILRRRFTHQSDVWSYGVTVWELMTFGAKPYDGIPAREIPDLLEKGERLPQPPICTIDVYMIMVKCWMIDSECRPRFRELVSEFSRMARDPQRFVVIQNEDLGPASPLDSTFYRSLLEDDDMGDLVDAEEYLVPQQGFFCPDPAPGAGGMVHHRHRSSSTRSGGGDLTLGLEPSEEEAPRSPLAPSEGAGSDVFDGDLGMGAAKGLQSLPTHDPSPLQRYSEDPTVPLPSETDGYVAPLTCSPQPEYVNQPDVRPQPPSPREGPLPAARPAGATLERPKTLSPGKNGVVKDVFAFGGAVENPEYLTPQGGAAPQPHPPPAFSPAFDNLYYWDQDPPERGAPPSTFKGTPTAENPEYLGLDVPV
T1 sequence (P04626 23-1255): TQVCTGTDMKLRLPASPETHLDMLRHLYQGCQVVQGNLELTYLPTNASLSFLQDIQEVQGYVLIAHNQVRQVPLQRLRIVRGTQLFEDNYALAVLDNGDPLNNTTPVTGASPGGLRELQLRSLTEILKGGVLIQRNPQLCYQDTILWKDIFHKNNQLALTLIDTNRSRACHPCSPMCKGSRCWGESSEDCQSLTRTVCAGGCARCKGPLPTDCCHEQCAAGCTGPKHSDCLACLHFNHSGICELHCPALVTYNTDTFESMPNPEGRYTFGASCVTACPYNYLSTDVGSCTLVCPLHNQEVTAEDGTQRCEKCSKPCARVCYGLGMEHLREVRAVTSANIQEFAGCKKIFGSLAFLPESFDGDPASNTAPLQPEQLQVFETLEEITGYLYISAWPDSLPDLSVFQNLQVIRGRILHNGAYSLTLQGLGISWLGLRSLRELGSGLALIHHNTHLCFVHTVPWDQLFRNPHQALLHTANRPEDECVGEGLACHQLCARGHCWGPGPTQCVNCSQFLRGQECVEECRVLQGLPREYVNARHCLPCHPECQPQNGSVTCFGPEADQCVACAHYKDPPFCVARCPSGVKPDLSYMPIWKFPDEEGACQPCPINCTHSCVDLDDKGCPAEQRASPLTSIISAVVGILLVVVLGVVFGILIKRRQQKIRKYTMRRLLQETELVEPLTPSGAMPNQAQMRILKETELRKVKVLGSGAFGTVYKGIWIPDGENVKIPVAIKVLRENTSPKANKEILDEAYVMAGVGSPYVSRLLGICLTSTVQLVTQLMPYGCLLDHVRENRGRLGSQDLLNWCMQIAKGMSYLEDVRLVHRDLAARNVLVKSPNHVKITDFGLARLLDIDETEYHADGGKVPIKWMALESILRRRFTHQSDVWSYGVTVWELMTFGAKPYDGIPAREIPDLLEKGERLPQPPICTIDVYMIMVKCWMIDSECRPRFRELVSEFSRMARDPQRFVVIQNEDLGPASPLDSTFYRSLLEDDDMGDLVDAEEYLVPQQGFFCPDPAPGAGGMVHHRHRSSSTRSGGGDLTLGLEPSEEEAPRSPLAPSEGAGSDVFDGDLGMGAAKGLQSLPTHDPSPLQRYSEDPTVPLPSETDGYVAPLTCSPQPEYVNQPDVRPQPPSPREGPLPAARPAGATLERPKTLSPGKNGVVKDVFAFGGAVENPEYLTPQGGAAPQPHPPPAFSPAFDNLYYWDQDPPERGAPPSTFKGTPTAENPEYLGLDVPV

EC50 [1]	EC50 (HER2VC (G776delinsVC))	GI50 (Ba/F3 HER2YVMA cells)	Compound	GI50 (Ba/F3 parental cells)
< 100 nM	100 to 350 nM		COc1ccc(Oc2ccc(Nc3ncnc4sc5c(c34)C(C)CN(C(=O)C=CCN(C)C)C5)cc2C)cn1 (single isomer, unassigned) [Compound 159]	
< 100 nM	< 100 nM		Cc1ccc(Oc2ccc(Nc3ncnc4sc5c(c34)C(C)N(C(=O)C=CCN(C)C)C5)cc2C)cn1 (single isomer, unassigned) [Compound 147]	
< 100 nM	100 to 350 nM	< 100 nM	COc1ccc(Oc2ccc(Nc3ncnc4sc5c(c34)CN(C(=O)/C=C/CN(C)C)C5)cc2C)cn1 [Compound 128, (E)-4-(dimethylamino)-1-(4-((4-((6-methoxypyridin-3-yl)oxy)-3-methylphenyl)amino)-5,7-dihydro-6H-pyrrolo[3′,4′:4,5]thieno[2,3-d]pyrimidin-6-yl)but-2-en-1-one]	1000 to 10000 nM
		< 100 nM	Cc1ccc(Oc2ccc(Nc3ncnc4sc5c(c34)CN(C(=O)/C=C/CN(C)C)CC5)cc2C)cn1 [Compound 108, (E)-4-(Dimethylamino)-1-(4-((3-methyl-4-((6-methylpyridin-3-yl)oxy)phenyl)amino)-7,8-dihydropyrido[3′,4′:4,5]thieno[2,3-d]pyrimidin-6(5H)-yl)but-2-en-1-one]	1000 to 10000 nM
< 100 nM	< 100 nM		COc1ccc(Oc2ccc(Nc3ncnc4sc5c(c34)C(C)CN(C(=O)C=CCN(C)C)C5)cc2C)cn1 (single isomer, unassigned) [Compound 160]	

The next lines start with the molecule.

Compound	EC50 [1]	EC50 (HER2VC (G776delinsVC))	GI50 (Ba/F3 HER2YVMA cells)	GI50 (Ba/F3 parental cells)
Cc1ccc(Oc2ccc(Nc3ncnc4sc5c(c34)CCN(C(=O)/C=C/CN3CCOCC3)C5)cc2C)cn1 [Compound 17, (E)-1-(4-((3-Methyl-4-((6-methylpyridin-3-yl)oxy)phenyl)amino)-5,6-dihydropyrido[4′,3′:4,5]thieno[2,3-d]pyrimidin-7(8H)-yl)-4-morpholinobut-2-en-1-one]	< 100 nM	< 100 nM		
Cc1nc2cc(Oc3ccc(Nc4ncnc5sc6c(c45)CCN(C(=O)/C=C/CN(C)C)C6)cc3C)ccn2n1 [Compound 127, (E)-4-(dimethylamino)-1-(4-((3-methyl-4-((2-methyl-[1,2,4]triazolo[1,5-a]pyridin-7-yl)oxy)phenyl)amino)-5,6-dihydropyrido[4′,3′:4,5]thieno[2,3-d]pyrimidin-7(8H)-yl)but-2-en-1-one]			100 to 1000 nM	1000 to 10000 nM
Cc1cc(Nc2ncnc3sc4c(c23)CN(C(=O)/C=C/CN(C)C)C4)ccc1Oc1ccn2ncnc2c1 [Compound 130, (E)-1-(4-((4-([1,2,4]Triazolo[1,5-a]pyridin-7-yloxy)-3-methylphenyl)amino)-5H-pyrrolo[3′,4′:4,5]thieno[2,3-d]pyrimidin-6(7H)-yl)-4-(dimethylamino)but-2-en-1-one]			< 100 nM	1000 to 10000 nM
Cc1ccc(Oc2ccc(Nc3ncnc4sc5c(c34)CCN(C(=O)/C=C/CN3CC[C@H](F)C3)C5)cc2C)cn1 [Compound 124]			< 100 nM	1000 to 10000 nM
Cc1cc(Nc2ncnc3sc4c(c23)CCN(C(=O)/C=C/CN(C)C)C4)ccc1Oc1ccn2ccnc2c1 [Compound 126, (E)-4-(dimethylamino)-1-(4-((4-(imidazo[1,2-a]pyridin-7-yloxy)-3-methylphenyl)amino)-5,8-dihydropyrido[4′,3′:4,5]thieno[2,3-d]pyrimidin-7(6H)-yl)but-2-en-1-one]			< 100 nM	1000 to 10000 nM
Cc1ccc(Oc2ccc(Nc3ncnc4sc5c(c34)CCN(C(=O)/C=C/CN(C)C)C5)cc2C)cn1 [Compound 8, (E)-4-(Dimethylamino)-1-(4-((3-methyl-4-((6-methylpyridin-3-yl)oxy)phenyl)amino)-5,6-dihydropyrido[4′,3′:4,5]thieno[2,3-d]pyrimidin-7(8H)-yl)but-2-en-1-one]	< 100 nM	< 100 nM	< 100 nM	1000 to 10000 nM
Cc1ccc(Oc2ccc(Nc3ncnc4sc5c(c34)CN(C(=O)/C=C/CN(C)C)C5)cc2Cl)cn1 [Compound 129, (E)-1-(4-((3-Chloro-4-((6-methylpyridin-3-yl)oxy)phenyl)amino)-5H-pyrrolo[3′,4′:4,5]thieno[2,3-d]pyrimidin-6(7H)-yl)-4-(dimethylamino)but-2-en-1-one]	< 100 nM	< 100 nM	< 100 nM	
Cc1ccc(Oc2ccc(Nc3ncnc4sc5c(c34)CN(C(=O)C=CCN(C)C)C5C)cc2C)cn1 (single isomer, unassigned) [Compound 169]	< 100 nM	< 100 nM		
Cc1ccc(Oc2ccc(Nc3ncnc4sc5c(c34)C(C)CN(C(=O)C=CCN3CCOCC3)C5)cc2C)cn1 (single isomer, unassigned) [Compound 177]	< 100 nM	< 100 nM		
